From patent publication EP0431480A2, “Substituted 10-ring-lactones, process for their preparation and their use” (HOECHST AKTIENGESELLSCHAFT, priority 1989, dated 1991)

Experiments:
Serumlipoproteine = assay: Chronic test in male rats: 7 daily oral doses, serum lipoproteins separated by preparative ultracentrifugation; format: in vivo, Ratte; conditions: for Vasoprotektiv Index HDL-C LDL-C: HDL-Cholesterin : LDL-Cholesterin, Kontrolle 3,24
Source text: Die Hemmung der hepatischen Cholesterinbiosynthese hat Auswirkungen auf die Verminderung von Serum-Lipiden, wie im chronischen Versuch an der männlichen Ratte nachgewiesen werden konnte (Tabelle 2).
Gruppen männlicher Ratten des Stammes HOE: WISKf (SPF 71) mit einem Ausgangsgewicht von etwa 240 g erhielten täglich morgens die erfindungsgemäßen Verbindungen in Polyethylenglykol 400 per
Schlundsonde, wobei die jeweilige Kontrollgruppe nur das Vehikel erhielt. 24 Stunden nach der letzten (7.) Applikation und nach 24 Stunden Futterentzug wurde Blut entnommen und im gewonnen Serum die Lipoproteine aus dem Pool einer Rattengruppe mittels der präparativen Ultrazentrifugentechnik getrennt. Hierbei wurden folgende Dichtegrenzen für die Trennung von VLDL, LDL und HDL benutzt:
• VLDL = very low density lipoprotein • LDL = low density lipoprotein • HDL = high density lipoprotein
Für die Bestimmung des Cholesterins und der Triglyceride wurden vollenzymatische Methoden nach Boehringer/Mannheim benutzt, für die Bestimmung des Proteins die Methode von Lowry et al. J. Biol. Chem., 193, 265 (1951) herangezogen. […] Daraus resultiert eine Erhöhung des vasoprotektiven Index (HDL-Cholesterin : LDL-Cholesterin) mit einer ca. 8-fach höheren Potency als Clofibrat.

HEP-G2-Zellen = assay: Inhibition of cholesterol biosynthesis: incorporation of 14C sodium acetate into cholesterol in HEP-G2 cell monolayers; format: cell-based; conditions: Homo sapiens; for inhibition at 0.1 µM: HepG2, Konzentration im Medium 10^-7 M; for inhibition at 0.0025 µM: HepG2, Konzentration im Medium 2,5·10^-9 M
Source text: Hemmung der Cholesterin Biosynthese
Die Hemmung der Cholesterin Biosynthese durch die erfindungsgemäßen Verbindungen wurde in Zellkulturversuchen mit HEP-G2-Zellen über die Wirkung auf den Einbau von ^14C-Natriumacetat in Cholesterin nachgewiesen. Dazu wurden Monolayers von HEP-G2-Zellen in lipoproteinfreiem Nährmedium mit entsprechenden Konzentrationen der erfindungsgemäßen Verbindungen eine Stunde vorinkubiert; nach Zugabe des^14C markierten Präkursors ^14C-Natriumacetat wurde die Inkubation für 3 Stunden fortgesetzt. Danach wurde ein Teil der Zellen alkalisch verseift, nach vorheriger Zugabe eines internen Standards von ^3H-Cholesterin. Die Lipide der verseiften Zellen wurden mit Chloroform-Methanol extrahiert. Dieses Lipidgemisch wurde nach Zusatz von Trägercholesterin präparativ dünnschichtchromatographisch getrennt, die Cholesterinbande nach dem Sichtbarmachen isoliert und die aus dem 14C-Präkursor gebildete Menge '^4C-Cholesterin szintigraphisch bestimmt. In einem aliquoten Teil der Zellen wurde Zellprotein bestimmt, so daß die in der Zeiteinheit pro mg Zellprotein aus 14C-Präkursor gebildete Menge an ^14C-Cholesterin berechnet werden konnte. Zum Vergleich für die Hemmwirkung einer zugesetzten erfindungsgemäßen Verbindung diente die Kontrolle, so daß direkt die Hemmung der Cholesterinbiosynthese bei einer bestimmten molaren Konzentration der erfindungsgemäßen Verbindung im Medium angegeben werden konnte. Zur Beurteilung der Wirkungstärke der erfindungsgemäßen Verbindungen wurde die Hemmwirkung von Lovastatin im selben Versuchsansatz bestimmt. In aliquoten Anteilen der Zellkultur wurde die Intaktheit der Zellkultur und die fehlende Zellschädigung durch Einwirkung der erfindungsgemäßen Verbindung morphologisch (Lichtmikroskop) beurteilt und biochemisch durch Bestimmung des Release von Laktat-Dehydrogenase ins Inkubationsmedium gemessen.
Das Ergebnis dieser Untersuchung ist in Tabelle 2 wiedergegeben. Die Wirkung der erfindungsgemäßen Substanzen als Cholesterin-Biosynthese-Hemmer ist deutlich zu erkennen. In den geprüften Konzentrationen hatten die erfindungsgemäßen Verbindungen im Zeitraum von 4 Stunden keine cytotoxische Wirkung.

[1] = read-out: % Cholesterin-Biosynthese-Hemmung

## CCOC(=O)C(C)(C)Oc1ccc(Cl)cc1 [Clofibrat, reference compound]
Serumlipoproteine; 100 mg/kg/Tag oral, 7 days
  Beeinflussung der Serumlipoproteine im Vergleich zur Kontrollgruppe in % HDL-C: -36%
  Beeinflussung der Serumlipoproteine im Vergleich zur Kontrollgruppe in % HDL-Protein: -14%
  Beeinflussung der Serumlipoproteine im Vergleich zur Kontrollgruppe in % LDL-C: -47%
  Beeinflussung der Serumlipoproteine im Vergleich zur Kontrollgruppe in % LDL-Protein: -13%
  Beeinflussung der Serumlipoproteine im Vergleich zur Kontrollgruppe in % VLDL-C: -56%
  Vasoprotektiv Index HDL-C LDL-C: 3,87

## CC(=O)OC1CC(=O)CC(=O)OC(C)CC2OC12 (centres unmarked) [II.1]
HEP-G2-Zellen; [1]
  inhibition at 0.1 µM: 13%

## CC1CC2OC2C(OC(=O)c2ccccc2)CC(=O)CC(=O)O1 (centres unmarked) [II.3]
Serumlipoproteine; 30 mg/kg/Tag oral, 7 days
  Beeinflussung der Serumlipoproteine im Vergleich zur Kontrollgruppe in % HDL-C: +22%
  Beeinflussung der Serumlipoproteine im Vergleich zur Kontrollgruppe in % LDL-C: -19%
  Beeinflussung der Serumlipoproteine im Vergleich zur Kontrollgruppe in % LDL-Protein: -14%
  Beeinflussung der Serumlipoproteine im Vergleich zur Kontrollgruppe in % VLDL-C: -21%
  Vasoprotektiv Index HDL-C LDL-C: 4,88
Serumlipoproteine; 7-tägige orale Applikation, lower dose than Clofibrat
  Wirkung auf LDL, VLDL und HDL-Fraktion (in words): deutlichen Verminderung von LDL und VLDL, bei Erhöhung der HDL-Fraktion
Serumlipoproteine; 7 days oral
  Verträglichkeit (Anwendung der Substanz von den Ratten vertragen): anstandslos vertragen
Serumlipoproteine; 7 days oral, in contrast to Clofibrat
  Hepatomegalie: keine Hepatomegalie
Serumlipoproteine; relative to Clofibrat, 7 days oral
  Erhöhung des vasoprotektiven Index (HDL-Cholesterin : LDL-Cholesterin): höhere Potency als Clofibrat: ca. 8 -fach

## CC1CC2OC2C(OC(=O)Nc2ccccc2)CC(=O)CC(=O)O1 (centres unmarked) [II.4, 2,4-Dioxo-10-methyl-1-oxa-6-(phenyl-amino-carbonyl-oxy)-7-cyclodecenoxid]
HEP-G2-Zellen; [1]
  inhibition at 0.1 µM: 68%

## CCC(=O)OC1CC(=O)CC(=O)OC(C)CC2OC12 (centres unmarked) [II.8]
HEP-G2-Zellen; [1]
  inhibition at 0.0025 µM: 51%
  inhibition at 0.1 µM: 69%

## CC(C)CC(=O)OC1CC(=O)CC(=O)OC(C)CC2OC12 (centres unmarked) [II.10]
HEP-G2-Zellen; [1]
  inhibition at 0.0025 µM: 48%
  inhibition at 0.1 µM: 59%

## CCCCC(=O)OC1CC(=O)CC(=O)OC(C)CC2OC12 (centres unmarked) [II.11, 6-Butylcarbonyloxy-2,4-dioxo-10-methyl-1-oxa-7-cyclodecenoxid]
HEP-G2-Zellen; [1]
  inhibition at 0.0025 µM: 57%
  inhibition at 0.1 µM: 73%

## CCCCCC(=O)OC1CC(=O)CC(=O)OC(C)CC2OC12 (centres unmarked) [II.13]
HEP-G2-Zellen; HepG2, Konzentration im Medium 10^-8 M, read-out: % Cholesterin-Biosynthese-Hemmung
  inhibition at 0.01 µM: 44%
HEP-G2-Zellen; HepG2, Konzentration im Medium 10^-9 M, read-out: % Cholesterin-Biosynthese-Hemmung
  inhibition at 0.001 µM: 37%

## CC[C@H](C)C(=O)O[C@H]1C[C@@H](C)C=C2C=C[C@H](C)[C@H](CC[C@@H]3C[C@@H](O)CC(=O)O3)[C@H]21 [Lovastatin, reference compound]
HEP-G2-Zellen; HepG2, Lovastatin in the same experimental run as the substance of the row, read-out: Vergleichsreihe für Lovastatin im selben Versuchsansatz IC50
  IC50: 10 nM
